{"source": "BindingDB's records for doi:10.1016/j.bmcl.2006.12.076", "about": "(Glaxosmithkline, 2007)", "key": {"[1]": {"experiment": "Antagonist activity at human recombinant CCR8 expressed in HUT78 cells assessed as I309-mediated migration by chemotaxis assay"}, "[2]": {"experiment": "Antagonist activity at human recombinant CCR8 expressed in Th2 cells assessed as I309 mediated migration by chemotaxis assay"}}}
{"smiles": "COc1ccc2nccc([C@@H]3CN(C4CCN(Cc5cc6ccccc6[nH]5)CC4)C(=O)O3)c2c1", "note": "[SB-649701]", "values": [{"measurement": "IC50", "setting": "[1]", "result": 501, "unit": "nM"}, {"measurement": "IC50", "setting": "[2]", "result": 100, "unit": "nM"}]}
